From US12509444B2, “Compounds and methods for CD73 modulation and indications therefor” (Plexxikon Inc., priority 2019, dated 2025) come the findings set out here.

Assay [1] concerns the target T1, Human CD73 (amino acid residues 27-549) (Homo sapiens, UniProt P21589).
T1 construct: Human CD73 (amino acid residues 27-549); His tag (N); made in house; host or cells: E. coli
T1 sequence (P21589 27-549): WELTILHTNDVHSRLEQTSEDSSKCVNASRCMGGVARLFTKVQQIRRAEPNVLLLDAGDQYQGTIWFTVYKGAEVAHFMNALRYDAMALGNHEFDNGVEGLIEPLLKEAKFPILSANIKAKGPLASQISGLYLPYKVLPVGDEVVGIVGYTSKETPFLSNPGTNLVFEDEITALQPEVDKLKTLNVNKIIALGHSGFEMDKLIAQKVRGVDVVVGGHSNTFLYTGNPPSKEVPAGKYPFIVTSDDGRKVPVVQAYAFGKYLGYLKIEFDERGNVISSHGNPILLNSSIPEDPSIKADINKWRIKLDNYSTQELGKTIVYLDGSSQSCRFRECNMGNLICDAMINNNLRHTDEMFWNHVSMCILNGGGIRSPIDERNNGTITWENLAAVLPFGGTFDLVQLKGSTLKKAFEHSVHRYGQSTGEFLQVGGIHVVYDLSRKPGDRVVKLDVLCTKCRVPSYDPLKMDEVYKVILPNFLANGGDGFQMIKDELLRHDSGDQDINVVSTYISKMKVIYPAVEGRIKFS
Kind of assay: CD73 enzymatic assay (luciferase-based indirect assay, CellTiter-Glo). The format is biochemical. The following applies: 0.4 nM CD73, 150 μM AMP, 1 hour at room temperature. In a few lines: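 Residual AMP inhibits luciferase, so luminescence reports CD73 turnover; read with CellTiter-Glo 2.0 plus 1 μM final ATP, 30 min. Reaction used 0.4 nM N-His CD73 (27-549, E. coli), 150 μM AMP, HEPES pH 7.4 with Tween 20, 1 h at room temperature. IC50 fitted by nonlinear regression.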
For orientation: Cellular ATP, detected with luciferase, serves as a proxy for viable cell number.

Assay [2] concerns the target T2, human CD73 (Homo sapiens, UniProt P21589).
T2 construct: expressed in transfected cells
T2 sequence (P21589 27-549): T1 sequence (P21589 27-549)
Kind of assay: Inhibitor activity against CD73 in cell based assay (CD73 expressing CHO-K1 cells). Conditions: CHO-K1 cells expressing human CD73, 150 μM AMP, 4 hours of incubation; read-out: CHO-K1 CELL VARIANT: CD73 IC50. In outline: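 Residual supernatant AMP was quantified via CellTiter-Glo luminescence (1 μM ATP added, 30 min, room temperature) after a 4 h exposure of human CD73-expressing CHO-K1 cells to 150 μM AMP plus compound, top final 10 μM, 8 points. IC50 came from nonlinear regression of percent inhibition.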

As a reminder, the IC50 is the midpoint of a concentration-inhibition curve.

On to `CCc1c(N2CC[C@@H](OC(=O)NC3CCC(F)(F)CC3)C2)cn[nH]c1=O` [P-0378, (R)-1-(5-ethyl-6-oxo-1,6-dihydropyridazin-4-yl)pyrrolidin-3-yl (4,4-difluorocyclohexyl)carbamate], for which the IC50 was 0.001 to 10 µM in assay [1] and 10 to 100 µM in assay [2].
For `N#C[C@H]1CCC[C@H]1NC(=O)O[C@@H]1CCN(c2cn[nH]c(=O)c2Cl)C1` [P-0379, (R)-1-(5-chloro-6-oxo-1,6-dihydropyridazin-4-yl)pyrrolidin-3-yl ((1R,2S)-2-cyanocyclopentyl)carbamate] the same measures were 0.001 to 10 µM and 0.001 to 10 µM.
As to `N#C[C@@H]1CCC[C@H]1NC(=O)O[C@@H]1CCN(c2cn[nH]c(=O)c2Cl)C1` [P-0380, (R)-1-(5-chloro-6-oxo-1,6-dihydropyridazin-4-yl)pyrrolidin-3-yl ((1R,2R)-2-cyanocyclopentyl)carbamate], the IC50 in assay [1] and in assay [2] was 0.001 to 10 µM in each case.
As to `CC1CCCC1NC(=O)O[C@@H]1CCN(c2cn[nH]c(=O)c2Cl)C1` (stereo partly drawn) [P-0381, (R)-1-(5-chloro-6-oxo-1,6-dihydropyridazin-4-yl)pyrrolidin-3-yl (2-methylcyclopentyl)carbamate], the IC50 in assay [1] and in assay [2] was 0.001 to 10 µM throughout.
As to `COC(=O)C12CCC(NC(=O)O[C@@H]3CCN(c4cn[nH]c(=O)c4Cl)C3)(CC1)C2` [P-0382, methyl (R)-4-((((1-(5-chloro-6-oxo-1,6-dihydropyridazin-4-yl)pyrrolidin-3-yl)oxy)carbonyl)amino)bicyclo[2.2.1]heptane-1-carboxylate], the IC50 in assay [1] and in assay [2] was 0.001 to 10 µM throughout.
Consider `O=C(N[C@H]1CCC[C@H]1C(F)(F)F)O[C@@H]1CCN(c2cn[nH]c(=O)c2Cl)C1` [P-0383, (R)-1-(5-chloro-6-oxo-1,6-dihydropyridazin-4-yl)pyrrolidin-3-yl ((1S,2R)-2-(trifluoromethyl)cyclopentyl) carbamate], for which the half-maximal inhibitory concentration (IC50) in assay [1] and in assay [2] was 0.001 to 10 µM throughout.
In the case of `O=C(N[C@@H]1CCC[C@H]1O)O[C@@H]1CCN(c2cn[nH]c(=O)c2Cl)C1` [P-0384, (R)-1-(5-chloro-6-oxo-1,6-dihydropyridazin-4-yl)pyrrolidin-3-yl ((1R,2R)-2-hydroxycyclopentyl)carbamate], the IC50 in assay [1] and in assay [2] was 0.001 to 10 µM each time.
Turning to `O=C(NC1CC2CC2C1)O[C@@H]1CCN(c2cn[nH]c(=O)c2Cl)C1` (stereo partly drawn) [P-0385, (R)-1-(5-chloro-6-oxo-1,6-dihydropyridazin-4-yl)pyrrolidin-3-yl bicyclo[3.1.0]hexan-3-ylcarbamate], the half-inhibitory concentration (IC50) in assay [1] and in assay [2] was 0.001 to 10 µM throughout.
As to `O=C(NC1CCCC1(F)F)O[C@@H]1CCN(c2cn[nH]c(=O)c2Cl)C1` (stereo partly drawn) [P-0386, (R)-1-(5-chloro-6-oxo-1,6-dihydropyridazin-4-yl)pyrrolidin-3-yl (2,2-difluorocyclopentyl)carbamate], the IC50 in assay [1] and in assay [2] was 0.001 to 10 µM throughout.
`CC1(C)CCC(NC(=O)O[C@@H]2CCN(c3cn[nH]c(=O)c3Cl)C2)C1` (stereo partly drawn) [P-0387, (R)-1-(5-chloro-6-oxo-1,6-dihydropyridazin-4-yl)pyrrolidin-3-yl (3,3-dimethylcyclopentyl)carbamate]: the half-inhibitory concentration (IC50) in assay [1] and in assay [2] was 0.001 to 10 µM in each case.
In the case of `O=C(NC1CCN(C(=O)Nc2ccccc2C(F)(F)F)CC1)O[C@@H]1CCN(c2cn[nH]c(=O)c2Cl)C1` [P-0388, (R)-1-(5-chloro-6-oxo-1,6-dihydropyridazin-4-yl)pyrrolidin-3-yl (1-((2-(trifluoromethyl)phenyl)carbamoyl)piperidin-4-yl) carbamate], the IC50 in assay [1] and in assay [2] was 0.001 to 10 µM each time.
For the molecule `O=C(NC1CCN(C(=O)Nc2ccc(C(F)(F)F)cc2)CC1)O[C@@H]1CCN(c2cn[nH]c(=O)c2Cl)C1` [P-0389, (R)-1-(5-chloro-6-oxo-1,6-dihydropyridazin-4-yl)pyrrolidin-3-yl (1-((4-(trifluoromethyl)phenyl)carbamoyl)piperidin-4-yl) carbamate], the IC50 in assay [1] and in assay [2] was 0.001 to 10 µM in each case.
Regarding `O=C(NC1CCN(C(=O)Nc2ccccc2F)CC1)O[C@@H]1CCN(c2cn[nH]c(=O)c2Cl)C1` [P-0390, (R)-1-(5-chloro-6-oxo-1,6-dihydropyridazin-4-yl)pyrrolidin-3-yl (1-((2-fluorophenyl)carbamoyl)piperidin-4-yl)carbamate], the IC50 in assay [1] and in assay [2] was 0.001 to 10 µM throughout.
Turning to `O=C(NC1CCN(C(=O)Nc2cccc(F)c2)CC1)O[C@@H]1CCN(c2cn[nH]c(=O)c2Cl)C1` [P-0391, (R)-1-(5-chloro-6-oxo-1,6-dihydropyridazin-4-yl)pyrrolidin-3-yl (1-((3-fluorophenyl)carbamoyl)piperidin-4-yl)carbamate], the IC50 in assay [1] and in assay [2] was 0.001 to 10 µM in each case.
Turning to `O=C(NC1CCCC1)O[C@@H]1CCN(c2cnn(CCO)c(=O)c2Cl)C1` [P-0392, (R)-1-(5-chloro-1-(2-hydroxyethyl)-6-oxo-1,6-dihydropyridazin-4-yl)pyrrolidin-3-yl cyclopentylcarbamate], the IC50 in assay [1] and in assay [2] was 0.001 to 10 µM throughout.
For `O=C(N[C@H]1CC[C@H](NS(=O)(=O)c2cnn(C3CCCC3)c2)CC1)O[C@@H]1CCN(c2cn[nH]c(=O)c2Cl)C1` [P-0393, (R)-1-(5-chloro-6-oxo-1,6-dihydropyridazin-4-yl)pyrrolidin-3-yl ((1r,4R)-4-((1-cyclopentyl-1H-pyrazole)-4-sulfonamido)cyclohexyl) carbamate], the IC50 in assay [1] and in assay [2] was 0.001 to 10 µM each time.
Turning to `CN([C@H]1CC[C@H](NC(=O)O[C@@H]2CCN(c3cn[nH]c(=O)c3Cl)C2)CC1)S(C)(=O)=O` [P-0394, (R)-1-(5-chloro-6-oxo-1,6-dihydropyridazin-4-yl)pyrrolidin-3-yl ((1r,4R)-4-(N-methylmethylsulfonamido)cyclohexyl)carbamate], the IC50 in assay [1] and in assay [2] was 0.001 to 10 µM in each case.
Take `N#Cc1c(N2CC[C@@H](OC(=O)NC3CCCC3)C2)cn[nH]c1=O` [P-0395, (R)-1-(5-cyano-6-oxo-1,6-dihydropyridazin-4-yl)pyrrolidin-3-yl cyclopentylcarbamate]: the IC50 in assay [1] and in assay [2] was 0.001 to 10 µM each time.
Regarding `CCn1cc(S(=O)(=O)N[C@H]2CC[C@H](NC(=O)O[C@@H]3CCN(c4cn[nH]c(=O)c4Cl)C3)CC2)cn1` [P-0396, (R)-1-(5-chloro-6-oxo-1,6-dihydropyridazin-4-yl)pyrrolidin-3-yl ((1r,4R)-4-((1-ethyl-1H-pyrazole)-4-sulfonamido)cyclohexyl) carbamate], the IC50 in assay [1] and in assay [2] was 0.001 to 10 µM throughout.
For the molecule `O=C(NC1CCCC1)O[C@@H]1CCN(c2cnn(CC(O)CO)c(=O)c2Cl)C1` (stereo partly drawn) [P-0397, (3R)-1-(5-chloro-1-(2,3-dihydroxypropyl)-6-oxo-1,6-dihydropyridazin-4-yl)pyrrolidin-3-yl cyclopentylcarbamate], the IC50 in assay [1] and in assay [2] was 0.001 to 10 µM in each case.
Take `O=C(NC1CC1)N[C@H]1CC[C@@H](NC(=O)O[C@@H]2CCN(c3cnn(CCO)c(=O)c3Cl)C2)CC1` [P-0398, (R)-1-(5-chloro-1-(2-hydroxyethyl)-6-oxo-1,6-dihydropyridazin-4-yl)pyrrolidin-3-yl ((1s,4S)-4-(3-cyclopropylureido)cyclohexyl) carbamate]: the IC50 in assay [1] and in assay [2] was 0.001 to 10 µM each time.
On to `C[C@H](O)C(=O)N1CCC(NC(=O)O[C@@H]2CCN(c3cn[nH]c(=O)c3Cl)C2)CC1` [P-0399, (R)-1-(5-chloro-6-oxo-1,6-dihydropyridazin-4-yl)pyrrolidin-3-yl (1-((S)-2-hydroxypropanoyl)piperidin-4-yl)carbamate], for which the IC50 in assay [1] and in assay [2] was 0.001 to 10 µM in each case.
As for `C[C@@H](O)C(=O)N1CCC(NC(=O)O[C@@H]2CCN(c3cn[nH]c(=O)c3Cl)C2)CC1` [P-0400, (R)-1-(5-chloro-6-oxo-1,6-dihydropyridazin-4-yl)pyrrolidin-3-yl (1-((R)-2-hydroxypropanoyl)piperidin-4-yl)carbamate], the IC50 in assay [1] and in assay [2] was 0.001 to 10 µM throughout.
As to `O=C(NC1CCN(C(=O)C2CCCO2)CC1)O[C@@H]1CCN(c2cn[nH]c(=O)c2Cl)C1` (stereo partly drawn) [P-0401, (R)-1-(5-chloro-6-oxo-1,6-dihydropyridazin-4-yl)pyrrolidin-3-yl (1-(tetrahydrofuran-2-carbonyl)piperidin-4-yl)carbamate], the 50% inhibitory concentration (IC50) in assay [1] and in assay [2] was 0.001 to 10 µM each time.
